Measurements: patent US20080114017A1, “Novel Indolopyridines, Benzofuranopyridines and Benzothienopyridines” (priority 2005, published 2008)

Experiments:
[1] = system: RKO colon adenocarcinoma cells (RKOp27, induced); assay: Alamar Blue cell viability assay, cell cycle specific mode of action, RKO p27 cells arrested by Ponasterone A induced p27Kip1; type: cell-based; conditions: Homo sapiens, cells arrested by ectopic p27Kip1 induced with 10 μM Ponasterone A, 72 hours incubation
Description: To determine the cell cycle specific mode of action, subclones of RKO colon adenocarcinoma cells (RKOp27 as described by Schmidt et al. in Oncogene 19, 2423-2429; 2000) are seeded into 96 well flat bottom plates at a density of 16000 cells per well in a volume of 50 μl per well in DMEM growth medium with 10% FCS containing 10 μM Ponasterone A. 24 hours after seeding the 50 μl each of the compound dilutions in DMEM medium are added into each well of the 96-well plate. Each compound dilution is tested as quadruplicates. Wells containing untreated control cells are filled with 50 μl DMEM medium containing 1% DMSO. The cells are then incubated with the substances for 72 hours at 37° C. in a humidified atmosphere containing 5% carbon dioxide. To determine the viability of the cells, 10 μl of an Alamar Blue solution (Biosource) are added and the fluorescence is measured at an extinction of 544 nm and an emission of 590 nm. For the calculation of the cell viability the emission value from untreated cells is set as 100% viability and the emission rates of treated cells are set in relation to the values of untreated cells. Viabilities are expressed as % values. Viability is compared of proliferating cells grown in the absence of the inducer Ponasterone A, versus viability of cells arrested by the expression of ectopic p27Kip1 induced by Ponasterone A.
(§1) Representative IC50 values for anti-proliferation/cytotoxicity determined in the aforementioned assays follow from the following table A, in which the numbers of the compounds correspond to the numbers of the examples.

[2] = system: RKO human colon adenocarcinoma cells (RKO p27 subclone, uninduced); assay: Alamar Blue cell viability assay, anti-proliferative/cytotoxic activity, proliferating RKO p27 cells (uninduced); type: cell-based; conditions: RKOp27, absence of Ponasterone A, 72 hours incubation
Description: The anti-proliferative/cytotoxic activity of the compounds described herein can be tested on subclones of RKO human colon adenocarcinoma cells (Schmidt et al., Oncogene 19, 2423-2429; 2000) using the Alamar Blue cell viability assay (described in O'Brien et al. Eur J Biochem 267, 5421-5426, 2000). The compounds are dissolved as 10 mM solutions in DMSO and subsequently diluted in semi-logarithmic steps. DMSO dilutions are further diluted 1:100 into Dulbecco's modified Eagle's medium (DMEM) containing 10% fetal calf serum to a final concentration twice as much as the final concentration in the test. RKO subclones are seeded into 96 well flat bottom plates at a density of 4000 cells per well in a volume of 50 μl per well. 24 hours after seeding the 50 μl each of the compound dilutions in DMEM medium are added into each well of the 96 well plate. Each compound dilution is tested as quadruplicates. Wells containing untreated control cells are filled with 50 μl DMEM medium containing 1% DMSO. The cells are then incubated with the substances for 72 hours at 37° C. in a humidified atmosphere containing 5% carbon dioxide. To determine the viability of the cells, 10 μl of an Alamar Blue solution (Biosource) are added and the fluorescence is measured at an extinction of 544 nm and an emission of 590 nm. For the calculation of the cell viability the emission value from untreated cells is set as 100% viability and the emission rates of treated cells are set in relation to the values of untreated cells. Viabilities are expressed as % values.
The corresponding IC50 values of the compounds for anti-proliferative/cytotoxic activity are determined from the concentration-effect curves.
as §1

SMILES | IC50 [1] | IC50 [2]
CN1C(=O)[C@@H]2Cc3c([nH]c4ccccc34)[C@@H](c3cccc(OC(F)(F)F)c3)N2C1=S [Compound 1, (3aS,10R)-2-Methyl-1-thioxo-10-(3-trifluoromethoxy-phenyl)-1,2,3a,4,9,10-hexahydro-2,9,10a-triaza-cyclopenta[b]fluoren-3-one] | > 100 µM | ≤ 2 µM
COC(=O)c1cccc([C@@H]2c3[nH]c4ccccc4c3C[C@H]3C(=O)N(C)C(=S)N23)c1 (racemic) [Compound 4, 3-((3aSR, 10RS)-2-Methyl-3-oxo-1-thioxo-2,3,3a,4,9,10-hexahydro-1H-2,9,10a-triaza-cyclopenta[b]fluoren-10-yl)-benzoic acid methyl ester] | > 100 µM | ≤ 2 µM
COC(=O)c1cc(Cl)cc([C@@H]2c3[nH]c4ccccc4c3C[C@H]3C(=O)N(C)C(=S)N23)c1 [Compound 6, 3-Chloro-5-((3aS,10R)-2-methyl-3-oxo-1-thioxo-2,3,3a,4,9,10-hexahydro-1H-2,9,10a-triaza-cyclopenta[b]fluoren-10-yl)-benzoic acid methyl ester] | > 100 µM | ≤ 2 µM
COC(=O)c1cccc([C@@H]2c3[nH]c4ccccc4c3C[C@H]3C(=O)N(C)C(=S)N23)c1 [Compound 5, 3-((3aS,10R)-2-Methyl-3-oxo-1-thioxo-2,3,3a,4,9,10-hexahydro-1H-2,9,10a-triaza-cyclopenta[b]fluoren-10-yl)-benzoic acid methyl ester] | > 100 µM | ≤ 2 µM
COC(=O)c1ccc(OC)c([C@@H]2c3[nH]c4ccccc4c3C[C@H]3C(=O)N(C)C(=S)N23)c1 [Compound 7, 4-Methoxy-3-((3aS,10R)-2-methyl-3-oxo-1-thioxo-2,3,3a,4,9,10-hexahydro-1H-2,9,10a-triaza-cyclopenta[b]fluoren-10-yl)-benzoic acid methyl ester] | > 100 µM | ≤ 2 µM
